One compound from patent US20190358176A1, “METHODS OF SENSITIZING CANCER CELLS TO IMMUNE CELL KILLING” (University of Pittsburgh - of the Commonwealth System of …, priority 2017, published 2019) can be followed below.

One data set relates to MDA-MB-231 cells. Put plainly: HCA of apoptosis and ERK phosphorylation (multiparametric: nuclear condensation, caspase-3 cleavage, ERK phosphorylation). In kind it is cell-based, human. The settings on record: for IC50: Homo sapiens, 24 hours. Here is the method:
MDA-MB-231 cells (10,000/well) were treated with identical concentration gradients of test agents on the right and left half of a 384 well microplate for later assessment of potential compound autofluorescence. After 24 hours, cells were fixed, permeabilized with 0.2% Triton X-100, blocked with 1% BSA/PBS, and immunostained with anti-phospho-ERK (E10, CST cat#9106L)/AlexaFluor488 and anti-cleaved caspase-3 (CST cat#9664L)/AlexaFluor594 primary/secondary antibody pairs. Plates were imaged on the ArrayScan II using a 10×0.5NA objective. Each well was background corrected by subtracting mean phospho-ERK and cleaved caspase-3 intensities from wells that had received secondary antibody only. Data in Table 1 are the averages of the indicated numbers of independent experiments, each performed in quadruplicate. IC50, standard error, and 95% confidence intervals were calculated by […] in GraphPad Prism.
Multiple data points were analyzed in GraphPad Prism by one-way ANOVA using Dunnett's multiple comparison test. EC50/IC50 values were obtained from at least three independent experiments by non-linear regression using a four parameter logistic equation. IC50, standard error, and 95% confidence intervals were calculated in GraphPad.

Data set [1] relates to rat hepatocytes. Put plainly: Five-day hepatocyte toxicity (PI positive cells). In kind it is cell-based. Conditions: rat hepatocytes, 5-day exposure. As to the method:
Rat hepatocytes were isolated using standard two step collagenase digestion (15) and sub-cultivated at 14,000 hepatocytes/well in collagen-1 coated 384 well plates in Williams E Medium supplemented with 10% FBS, 2 mM L-glutamine and 50 U/ml Penicillin and streptomycin. After 4 hours, medium was decanted and replaced with Hepatocyte Maintenance Media (Williams E supplemented with 1.25 mg/ml bovine serum albumin, 6.25 μg/ml human insulin, 100 nM dexamethasone, 6.25 μg/ml human transferrin, 6.25 ng/ml selenous acid, 2 mM L-glutamine, 15 mM HEPES, 100 U/mL penicillin, and 100 U/mL streptomycin). After overnight culture, cells were treated with concentration gradients of test agents. One hour after compound addition, cells were labeled with 200 nM TMRE and 4 μg/ml Hoechst 33342 for 45 min, imaged live on an ArrayScan VTI using a 10× objective, and images were analyzed with the Compartmental Bioapplication. Mitochondria were identified as cytosolic spots by size and brightness. The final parameter was % HIGH RingSpotAvgIntenCh2 (i.e., percentage of cells with TMRE puncta in the cytoplasm based on a threshold set with vehicle treated cells).
A gelling solution of 1.25 mg/ml rat tail collagen type I in pH 7.2 90:10 (v/v) Williams E media/10×HBSS was overlaid onto the rat hepatocytes. The collagen gel was incubated for 1 hour at 37° C., 5% CO2. The collagen sandwich cultures were then challenged for 5 days to test compounds in Hepatocyte Maintenance Media, without refeeding. A 10× solution of 40 μg/ml Hoechst 33342 was added during the final 2 hours of incubation followed by a 10× solution of 20 μg/ml PI for 1 hour. Cells were imaged and the percentage of PI positive cells calculated as above.

Data set [2] deals with rat hepatocytes. Put plainly: ROS generation in hepatocytes (DHE staining). In kind it is cell-based. Here is the method: Cells were cultured as above and labeled four hours following drug addition with 4 μM DHE for 2 hours. Hoechst 33342 was added to a 4 μg/ml final concentration during the final hour of incubation. In the presence of ROS, DHE is oxidized to a red fluorescent dye (oxyethidium). Cells were imaged as above and the percentage of oxyethidium-nuclear positive cells calculated based on a threshold set with vehicle treated cells.

As a reminder, the IC50 is the concentration that inhibits the measured activity by half.

Like-named read-outs stand apart in the source and are kept apart here.

In the case of `O=C1/C(=C/c2ccccc2)C(NC2CCCCC2)c2cc(Br)ccc21` (stereo not drawn) [BCI-215], in the data set on MDA-MB-231 cells (BCI and BCI-215 at 22 μM), the nuclear morphology entry was “shrunken, condensed nuclei that resembled pyknosis”. The 50% inhibitory concentration (IC50) amounted to 15.4 µM with MDA-MB-231 cells (induction of phospho-ERK, read-out: IC50 ERK phosphorylation); 7.33 µM in the data set with MDA-MB-231 cells (read-out: IC50 Caspase-3 cleavage); 12.8 µM with MDA-MB-231 cells (read-out: IC50 Nuclear condensation). Moreover, in the data set on rat hepatocytes [1], the “hepatocyte toxicity, cell death (PI positive cells)” value is “completely devoid of hepatocyte toxicity up to 100”. Also, in the data set on rat hepatocytes [2], the “generation of ROS in hepatocytes (DHE)” value was “does not Generate Reactive Oxygen Species”.
